Test results as given in paper PMC4579270, “Identification and Characterization of an Irreversible Inhibitor of CDK2” (Chemistry & Biology, 2015).
Entries after “also recorded” stand apart in the source; their conditions may differ.

Legend:
[1] = biological target: T1, immobilized CDK2/cyclin A (Homo sapiens, UniProt P24941); test: SPR kinetics of non-covalent complex; type: binding; settings: 1:1 model, 25 °C
T1 construct: made in house; host or cells: Escherichia coli
Description: To determine the kinetics of the interactions of NU6310 and NU6300 with immobilized CDK2/cyclin A, the sensor surface was exposed to five different concentrations of each inhibitor for different contact times (Figures 2A and 2B). On these relatively short time scales (compared with the experiment above), the interactions between CDK2 and either NU6300 or NU6310 appeared reversible, since the sensorgrams were well described by a simple 1:1 model and the dissociation was similar irrespective of the contact time. It enabled the estimation of the kinetic constants (kon, koff, KD) for the formation of the non-covalent complex. […] The formation of a covalent complex could not be detected on the time scales of these experiments, and the injection times could not be extended further for practical reasons.
Figure 2 NU6300 Is a Covalent Inhibitor of CDK2 (A and B) SPR sensorgrams for the interaction between immobilized CDK2 and NU6310 and NU6300. (A) The effects of time on the interaction were evaluated by comparing the dissociation rates for the compounds injected at 10 μM for different contact times (30, 60, 120, and 240 s). Sensorgrams are aligned with respect to the start of the dissociation. (B) The determination of rate constants was based on global analysis of a set of sensorgrams recorded for a concentration series (39, 156, 625, 2,500, and 10,000 nM) of the compounds. Theoretical curves of a fitted 1:1 Langmuir interaction model (black) are overlaid on the experimental traces. (C) Phosphorylation of GST-Rb by CDK2/cyclin A. The slower-migrating band is hyperphosphorylated GST-Rb (Phospho-Rb). Time points (in minutes) are shown above. (D) Time-dependent inhibition of CDK2/cyclin A. Activity was measured using the ADP-Glo assay format against a peptide of sequence HHASPRK. Error bars indicate SD of the measurements. See also Figure S1 and Table S1.
The interaction experiments were performed using SPR biosensor technology, with Biacore S51 and T100 instruments, CM5 biosensor chips, and standard reagents (GE Healthcare). Full details can be found in the Supplemental Experimental Procedures. […]
CDK2 was immobilized to activated carboxylated dextran surfaces by amine coupling to give surface densities of 6000-25000 RU. All interaction experiments were performed at 25 °C in 10 mM phosphate pH 7.4, 137 mM NaCl, 3 mM KCl, with addition of 0.05 % Tween 20, 5 % (v/v) DMSO, and at a flow rate of 90 or 30 µL/min. […]
Sensorgrams or extracted report points from reference surfaces and blank injections were subtracted from the raw data prior to data analysis, using Biacore T100 evaluation software 2.0. A 1:1 interaction model was fitted globally to sets of sensorgrams recorded with different contact times and at different inhibitor concentrations in multi-cycle experiments. Kinetic parameters were determined from sensorgrams with 30 s and 60 s contact time. Standard deviations were based on at least 4 measurement series.
CDK2/cyclin A was mixed with a freshly prepared solution of NU6300 to achieve DMSO and inhibitor concentrations of 2% and 2 mM respectively, concentrated by ultrafiltration to a CDK2/cyclin A final concentration of circa 5 mg ml-1, and then crystallized as described (Davies et al., 2002). Briefly, crystals were grown from a mother liquor containing 0.6–0.8 M KCl, 0.9–1.2 M (NH4)2SO4, and 100 mM HEPES (pH 7.0). Sitting drops were set up with a 1:1 ratio of protein to reservoir solution in a total initial volume of 0.5 or 1.0 µl.
Before data collection, crystals were briefly immersed in cryo-protectant (1 M sodium

CDK2-Cyclin A = CDK2-Cyclin A (Homo sapiens, UniProt P24941); test: Kinase assay against GST-Rb after overnight incubation and dialysis; type: biochemical; parameters: made in house; host or cells: Escherichia coli (CDK2 co-expressed with S. cerevisiae CAK1); settings: wild-type CDK2/cyclin A, overnight with 1 mM inhibitor, dialysed 8 h
Method: To confirm the results of the ESI-MS and SPR analysis, CDK2/cyclin A was incubated with either NU6300 or NU6310, then the samples and appropriate controls were dialyzed. The resulting CDK2/cyclin A activity was analyzed in an in vitro kinase assay against a C-terminal fragment of the retinoblastoma protein Rb. After an overnight incubation in the presence of NU6300, CDK2 activity was not recovered after dialysis (Figure 2C). […] The activity of NU6300 was also characterized in an alternative kinase assay format (ADP-Glo;^, Promega) in which covalent inhibition of CDK2/cyclin A was allowed to proceed in a pre-incubation phase and was assessed in a subsequent activity assay, where enzyme and inhibitor were diluted such that the inhibitor was present at 20-fold below its IC50 value. The samples and appropriate controls were incubated for 0, 10, 30, 60, and 120 min, prior to addition of ATP and peptide substrate (sequence HHASPRK, single-letter amino acid code), to initiate the kinase reaction. […]
CDK2/cyclin A (200 µM) was incubated overnight with 1 mM inhibitor or DMSO, and then dialysed for 8 h with regular replacement of dialysis buffer into HEPES-buffered saline (50 mM HEPES, pH 7.5, 250 mM NaCl, 0.02% MTG). […] Reactions were stopped by addition of SDS-PAGE loading buffer and analyzed by SDS-PAGE. […]

Row | Compound | Kd [1] [µM] | koff [1] [s⁻¹] | kon [1] [M⁻¹ s⁻¹] | CDK2 activity against Rb after incubation with inhibitor and dialysis (CDK2-Cyclin A)
1 | CCS(=O)(=O)c1ccc(Nc2nc(OCC3CCCCC3)c3nc[nH]c3n2)cc1 [NU6310, 6-(cyclohexylmethoxy)-N-(4-(ethylsulfonyl)phenyl)-9H-purin-2-amine] | 0.716 ± 0.012 | 0.0809 ± 0.007 | 113000 ± 1e+09 | could phosphorylate Rb; also recorded: recovered their activity
2 | C=CS(=O)(=O)c1ccc(Nc2nc(OCC3CCCCC3)c3nc[nH]c3n2)cc1 [NU6300, 6-(cyclohexylmethoxy)-N-(4-(vinylsulfonyl)phenyl)-9H-purin-2-amine] | 1.31 ± 0.18 | 0.0713 ± 0.0063 | 54500 ± 7.2e+08 | not recovered; also recorded: did not
